Source: patent US10787432B2, “N-[(pyridyloxy)propanyl]benzamides” (Boehringer Ingelheim International GmbH, priority 2016, dated 2020)
Read-outs that look alike come from different tables or passages of the source.

Key:
[1] = target: T1, human Orexin 1 receptor (Homo sapiens, UniProt O43613); assay: Assay A: In vitro testing of OX1R potency: OX1R IP1 (HTRF, CHO-K1/hOX1 cells, Orexin A as agonist); type: cell-based; conditions: for Kb: read-out: OX1R Kb (Orexin A concentration used)
T1 construct: stably expressing the full-length human Orexin 1 receptor; expressed in transfected cells; host or cells: CHO-K1 (CHO-K1/hOX1), co-expressing aequorin
T1 sequence (O43613 1-425): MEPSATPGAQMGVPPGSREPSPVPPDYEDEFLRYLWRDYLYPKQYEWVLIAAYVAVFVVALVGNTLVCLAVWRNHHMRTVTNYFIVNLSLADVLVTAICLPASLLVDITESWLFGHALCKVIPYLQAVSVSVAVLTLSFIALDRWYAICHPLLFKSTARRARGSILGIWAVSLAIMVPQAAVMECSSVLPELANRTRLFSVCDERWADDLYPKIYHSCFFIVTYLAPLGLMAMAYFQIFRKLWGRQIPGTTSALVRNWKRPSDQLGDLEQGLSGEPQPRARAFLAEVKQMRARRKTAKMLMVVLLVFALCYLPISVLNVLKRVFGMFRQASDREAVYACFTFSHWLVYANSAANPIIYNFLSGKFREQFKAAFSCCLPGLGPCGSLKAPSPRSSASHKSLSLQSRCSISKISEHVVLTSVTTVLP

[2] = Assay C: Metabolic stability in human liver microsomes (Human MST); type: in vitro ADME; conditions: pooled human liver microsomes, pH 7.6; human liver microsomes 1 mg/mL, compound 1 μM, 37° C., NADPH; read-out: Human MST t1/2
Procedure: C. Assessment of Metabolic Stability in Human Liver Microsomes (Human MST)
The metabolic stability of the compounds according to the invention may be investigated as follows:
The metabolic degradation of the test compound is assayed at 37° C. with pooled human liver microsomes. The final incubation volume of 100 μL per time point contains TRIS buffer pH 7.6 at room temperature (0.1 M), MgCl2 (5 mM), microsomal protein (1 mg/mL) and the test compound at a final concentration of 1 μM. Following a short pre-incubation period at 37° C., the reactions are initiated by addition of beta-nicotinamide adenine dinucleotide phosphate, reduced form (NADPH, 1 mM), and terminated by transferring an aliquot into solvent after different time points. After centrifugation (10000 g, 5 min), an aliquot of the supernatant is assayed by LC-MS/MS for the amount of parent compound. The half-life (t1/2) is determined by the slope of the semi-logarithmic plot of the concentration-time profile.

[3] = target: T2, human orexin 2 receptor (Homo sapiens, UniProt O43614); assay: Assay B: In vitro testing of OX2R potency: OX2R IP1 (HTRF, CHO-K1/hOX2 cells, Orexin A as agonist); type: cell-based; conditions: Orexin A 0.5 nM
T2 construct: stably expressing the full-length human orexin 2 receptor; expressed in transfected cells; host or cells: CHO-K1 (CHO-K1/hOX2), co-expressing aequorin
T2 sequence (O43614 1-444): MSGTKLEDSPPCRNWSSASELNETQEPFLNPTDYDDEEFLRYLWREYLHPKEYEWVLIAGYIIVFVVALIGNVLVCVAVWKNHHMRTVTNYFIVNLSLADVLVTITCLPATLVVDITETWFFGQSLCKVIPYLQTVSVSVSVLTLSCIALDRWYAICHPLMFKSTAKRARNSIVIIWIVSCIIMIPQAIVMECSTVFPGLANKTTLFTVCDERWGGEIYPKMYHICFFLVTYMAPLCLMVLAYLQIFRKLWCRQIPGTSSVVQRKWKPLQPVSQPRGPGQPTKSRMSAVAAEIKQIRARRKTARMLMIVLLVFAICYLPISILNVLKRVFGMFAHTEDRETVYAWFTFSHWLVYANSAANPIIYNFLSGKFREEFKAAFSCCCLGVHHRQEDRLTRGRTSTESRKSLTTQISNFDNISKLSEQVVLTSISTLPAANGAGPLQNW
Text: Activation of the orexin receptors expressed in cell lines results in an increase in intracellular IP3 concentration. IP1, a downstream metabolite of IP3, accumulates in cells following receptor activation and is stable in the presence of LiCl. Using Homogeneous Time-Resolved Fluorescence technology with Lumi4-Tb cryptate (commercially available from Cisbio Bioassay.) and a suitable fluorescence plate reader. […] Chem. Genomics 2009, 3, 22-32. This technique is used to characterize pharmacological modification of the orexin receptors.
B. In Vitro Testing of OX2R Potency: OX2R IP1
IP1 measurements are performed in CHO-K1 cells stably expressing the full-length human orexin 2 receptor and the aequorin photoprotein. Cells are cultivated in Ham's nutrient mixture F12 medium with 10% fetal calf serum, in a 37° C., 95% humidity and 5% CO2 incubator. The CHO-K1/hOX2 cell mass is expanded to larger cell numbers. The cells are obtained as frozen cells in cryo-vials and stored until use at −150° C. The viability of the cells after thawing is >90%. In preparation for the assay, 24 hours before the assay, the cells are thawed at 37° C. and immediately diluted with cell culture medium. After centrifugation, the cell pellet is resuspended in medium and then distributed into the assay plates with a density of 5000 cells/25 μL per well. The plates are incubated for one hour at room temperature to reduce edge effects before they are incubated for 24 hours at 37° C./5% CO2. Compounds are prepared by a 8-point serial dilution in DMSO and a final dilution step into assay buffer (HBSS with 20 mM HEPES, 0.1% BSA and 50 mM LiCl, pH 7.4) to ensure a final DMSO concentration of 1% in the assay.
On the day of the assay, cells in the plate are washed twice with 60 μL assay buffer (20 μL buffer remained in the wells after washing), followed by adding 5 μL per well of compounds diluted in assay buffer. After 15 minutes of incubation at room temperature 5 μL per well of Orexin A peptide (final concentration: 0.5 nM) dissolved in assay buffer is added to the assay plate. The assay plate is incubated for 60 minutes at 37° C. Then 5 μL per well of Anti-IP1-Cryptate Tb solution and 5 μL per well of IP1-d2 dilution are added to all well of the plate and the plate is incubated for a further 60 minutes light protected at room temperature. The emission at 615 nm and 665 nm (Excitation wavelength: 320 nm) are measured using an EnVision reader (PerkinElmer). The ratio between the emission at 665 nm and 615 is calculated by the reader.
8-point four parametric non-linear curve fitting and determination of IC50 values and Hill slopes is performed using a regular analysis software e.g. AssayExplorer (Accelrys). In order to establish an agonist concentration independent parameter, Kb values are calculated using the following equation: IC50/((2+(A/EC50)n)^1/n−1) (with A=concentration agonist, EC50=EC50 agonist, n=Hill slope agonist) (see P. Leff, I. G. Dougall, Trends Pharmacol. Sci. 1993, 14(4), 110-112).
Kb values from Assay A (OX1R) and Assay B (OX2R) can then provide a selectivity ratio which is independent of the agonist (Orexin A) concentration.

SMILES | OX2R Kb/OX1R Kb ([1]; OX1R Kb at 0.5 nM Orexin A) | OX2R Kb/OX1R Kb ([1]; OX1R Kb at 50 nM Orexin A) | Kb ([1]; Orexin A 0.5 nM) | Kb ([1]; Orexin A 50 nM) | half-life at 1 μM [2] | Kb [3]
CCN(C(=O)c1ccccc1-c1nnc(C)o1)[C@@H](C)COc1ccc(C(F)(F)F)cn1 [Example 22] | 217 | 168 | 0.93 nM | 1.2 nM | 84 min | 202 nM
CCN(C(=O)c1cccc(F)c1-n1nccn1)[C@@H](C)COc1ncc(C(F)(F)F)cc1F [Example 113] | 173 |  | 0.4 nM |  | 95 min | 69 nM
CCN(C(=O)c1cccc(F)c1-n1nccn1)[C@@H](C)COc1ccc(Cl)cn1 [Example 114] | 92 | 98 | 0.59 nM | 0.55 nM | 110 min | 54 nM
CCN(C(=O)c1c(F)cccc1-n1nccn1)[C@@H](C)COc1ccc(C(F)(F)F)cn1 [Example 94] |  | 211 |  | 0.37 nM | 31 min | 78 nM
CCN(C(=O)c1c(F)cccc1-n1nccn1)[C@@H](C)COc1ncc(C(F)(F)F)cc1F [Example 56] | 98 | 257 | 1.1 nM | 0.42 nM | 48 min | 108 nM
CCN(C(=O)c1cc(C#N)ccc1-n1nccn1)[C@@H](C)COc1ncc(C(F)(F)F)cc1F [Example 57] |  | 214 |  | 0.95 nM | > 130 min | 203 nM
CCN(C(=O)c1cc(C)ccc1-c1ncccn1)[C@@H](C)COc1ccc(C(F)(F)F)cn1 [Example 105] |  | 524 |  | 0.021 nM | 10 min | 11 nM
CCN(C(=O)c1ccccc1-c1ncccn1)[C@@H](C)COc1ccc(C(F)(F)F)cn1 [Example 102] |  | 1080 |  | 0.025 nM | 36 min | 27 nM
CCN(C(=O)c1ccc(F)cc1-c1nnc(C)o1)[C@@H](C)COc1ccc(C(F)(F)F)cn1 [Example 14] | 461 |  | 4.5 nM |  | > 130 min | 2070 nM
CCN(C(=O)c1ccc(C#N)cc1-n1nccn1)[C@@H](C)COc1ccc(C(F)(F)F)cn1 [Example 103] | 273 |  | 4.28 nM |  | 58 min | 1170 nM
CCN(C(=O)c1cc(F)ccc1-c1ncccn1)[C@@H](C)COc1ccc(C(F)(F)F)cn1 [Example 107] |  | 500 |  | 0.064 nM | 65 min | 32 nM
CCN(C(=O)c1ccccc1-c1noc(C)n1)[C@@H](C)COc1ccc(C(F)(F)F)cn1 [Example 123] |  | 200 |  | 0.17 nM | 23 min | 34 nM
